Measured values published in patent US20060062725A1, “Methods for preparing metal-carborane complexes for radioimaging and radiotherapy” (priority 2004, published 2006).

Assay: Stability of [99mTc(CO)3(OH2)3]+ prepared with the KF kit
Assay type: physicochemical
Settings: prepared in the presence of KF
Description: Commercially available kits contain sodium tartrate to prevent premature decomposition of [^99mTc(CO)3(OH2)3]^+. Thinking that the chelate was interfering with the fluoride mediated complexation reaction, a kit in which KF was substituted for tartrate was prepared.

Substance: [^99mTc(CO)3(OH2)3]^+
- time stable: greater than 6 h
